Source: patent US20250295655A1, “BRUTON'S KINASE INHIBITORS FOR THE TREATMENT OF A SUDDEN ALLERGIC REACTION” (ALK-ABELLÓ A/S, priority 2022, published 2025)

What was measured:
basophils = assay: Basophil activation (CD63 FACS) after allergen stimulation, BTKi added before or after; format: cell-based, human; conditions: BTKi 1000 or 5000 nM added before or 1, 5, 15, 30 min after allergen stimulation; vs water control
Protocol: PBMCs were isolated from heparinized blood using Leucoseptubes (Greiner 227390) with Lymfoprep (Fresenius Kabi 1114547). Following isolation, the cells were washed and resuspended in RPMI 0.5% HSA (RPMI 1640 Gibco 72400-021, HSA Sigma A8763) to 0.25× original blood volume. 2 ng/ml of cytokine IL-3 (RD Peprotec cat nr 200-03) was added to the cells for Basophil priming with final 1 ng/ml. 50 μl of the cell suspension was used for each test, corresponding to 200 μl blood.
The test can be carried out with any BTKi. In the present example, the following BTKis were tested: • Acalabrutinib (Cat A-7337, 100 mM in DMSO) was diluted in RPMI 0.5% HSA to a concentration of 10,000 and 2,000 nM. • Ibrutinib was diluted in RPMI 0.5% HSA to a concentration of 20.000, 5.000 and 1.000 nM. • Branebrutinib was diluted in RPMI 0.5% HSA to a concentration of 20.000 and 5.000 nM. • Remibrutinib was diluted in RPMI 0.5% HSA to a concentration of 20.000 and 5.000 nM. • Pirtobrutinib was diluted in RPMI 0.5% HSA to a concentration of 20.000 and 5.000 nM.
Allergens: Grass pollen extract of the species Phleum pratense (ALK) was diluted in RPMI 0.5%-HSA to five concentrations of 100, 10, 1.0, 0.1 and 0.01 ng/ml. House dust mite allergen extract of the species Dermatophagoides pterinussinus (Derp ex) were made in concentrations of 0.1, 1 and 10 ug/ml by dilution in RPMI 0.5% HSA.
The experiment was performed in 96 deep-well plates. 50 μl cell suspension (as described above) was added to each well. 50 μl activation stimuli and 100 μl BTK inhibitor or buffer were added at different time points (t=0 min, 5 min, 15 min or 30 min). Following addition of the components, the plate was incubated at 37° C. water bath for one hour. After incubation, the activation was stopped by adding 500 μl FACS FLOW (BD342003), 0.5% BSA (Fisher scientific BP9703-100)+10 mM EDTA (Invitrogen 15575-038). The plate was centrifuged for 5 min, at 600×G and 4° C. Supernatants were harvested and used for measurement of histamine by ELISA (supplier). Cell pellets were further washed and stained for FACS analysis with CD63 FITC (BD 557288) CD203c APC (e-bio) and CD123 PE (BD340545) using standard FACS staining procedure, 30 min on ice protected from light, followed by fixation with Cell Fix (BD) before analysis on Fortessa flowcytometer. Flowcytometer data was analyzed using FlowJo software and statistical data from here used for data analysis.

ex-vivo blood basophils = conditions: leukemia patient treated with ibrutinib; cited from earlier work
JAK2/STAT3 pathway = conditions: cited from earlier work
[1] = test system: mast cell and basophil reactivity to food; conditions: ibrutinib daily for up to seven days before allergen exposure; cited from earlier work
basophil cells = conditions: pretreatment of basophil cells before allergen exposure; cited from earlier work

| SMILES | activation of cells after stimulation with an allergen (percent activation of basophils) (basophils) | IgE-dependent histamine release in ex-vivo blood basophils (ex-vivo blood basophils) | inhibition of JAK2/STAT3 pathway induced by Concavalin A (JAK2/STAT3 pathway) | mast cell and basophil reactivity to food (SPT, BAT) [1] | IgE-mediated histamine release (basophil cells) |
| --- | --- | --- | --- | --- | --- |
| CC#CC(=O)N[C@H]1CCCN(c2c(F)cc(C(N)=O)c3[nH]c(C)c(C)c23)C1 [Branebrutinib, 4-[(3S)-3-(but-2-ynoylamino)piperidin-1-yl]-5-fluoro-2,3-dimethyl-1H-indole-7-carboxamide] | able to decrease the activation of cells | – | – | – | – |
| C=CC(=O)N1CCC[C@@H](n2nc(-c3ccc(Oc4ccccc4)cc3)c3c(N)ncnc32)C1 [Ibrutinib, 1-[(3R)-3-[4-amino-3-(4-phenoxyphenyl)-1H-pyrazolo[3,4-d]pyrimidin-1-yl]-1-piperidinyl]-2-propen-1-one] | able to decrease the activation of cells | largely suppressed | able to inhibit | can reduce mast cell and basophil reactivity | inhibit IgE-mediated histamine release |
| COc1ccc(F)cc1C(=O)NCc1ccc(-c2nn([C@@H](C)C(F)(F)F)c(N)c2C(N)=O)cc1 [Pirtobrutinib, 5-amino-3-[4-[[(5-fluoro-2-methoxybenzoyl)amino]methyl]phenyl]-1-[(2S)-1,1,1-trifluoropropan-2-yl]pyrazole-4-carboxamide] | able to decrease the activation of cells | – | – | – | – |
| C=CC(=O)N(C)CCOc1c(N)ncnc1-c1cc(F)cc(NC(=O)c2ccc(C3CC3)cc2F)c1C [Remibrutinib, N-[3-[6-amino-5-[2-[methyl(prop-2-enoyl)amino]ethoxy]pyrimidin-4-yl]-5-fluoro-2-methylphenyl]-4-cyclopropyl-2-fluorobenzamide] | able to decrease the activation of cells | – | – | – | – |
